Assay results: patent US8198325B2, “Unsaturated alkyl esters of 5-aminolevulinic acid, their preparation and their use” (Industry Foundation of Chonnam National University, priority 2006, dated 2012)

Experiments:
[1] = system: all of the cells except for HEK (hF, A431, TXM 13); assay: Cytotoxicity test (MTT), summary for all of the cells except for HEK; format: cell-based; settings: text summary of the tables
Method: (§1) 3. Cytotoxicity Test (Cell Survival Test)
(§2) Cytotoxicity was conducted through an MTT assay (Chemicon, Serologicals Corporation, USA) as follows.
(§3) Cells were seeded at a density of 3×10^4 cells/well in 96-well plates (Nunc Do, Denmark).
(§4) When the cells were at a confluence of about 60˜70%, 24 hours after seeding, the media was exchanged for 100 μl of fresh, serum-free media containing various respective concentrations of ALA or ALA-ester, after which the cells were incubated for an additional 24 hours.
(§5) An MTT solution (0.5 mg/mL) was added in an amount of […] to each well, followed by incubation for 4 hours to form formazan crystals. A color-developing solution (isopropanol with 0.04 N HCl) was added in an amount of […] per well to solubilize the formazan crystals.
(§6) The plates were measured for absorbance at 570 nm using an ELISA reader (EMAX, Molecular Device, USA).

Each cell line = assay: Apoptosis and cell death by Annexin V-FITC/PI flow cytometry after visible light (FIG. 8); format: cell-based
Method: 6. Research into Apoptosis and Cell Death A. Cell Line Each cell line cultured in 6-well plates was treated with ALA or ALA esters of the present invention, irradiated with visible light from an LED, and stained with Annexin V-FITC and PI (Annexin V-FITC Apoptosis detection Kit, BD) before the measurement of apoptosis using flow cytometry (FACSCalibur, BD, USA).

[2] = system: Malignant melanoma (TMX 13); assay: Cytotoxicity test (cell survival), MTT assay, TXM 13; format: cell-based; settings: 24 hours
Method: as §1, §2, §3, §4, §5, §6
(4) Malignant Melanoma (TMX 13)

[3] = system: Human dermal fibroblast (hF); assay: Cytotoxicity test (cell survival), MTT assay, hF; format: cell-based; settings: 24 hours
Method: as §1, §2, §3, §4, §5, §6
(2) Human Dermal Fibroblast (hF)

[4] = system: Human epidermal keratinocyte (HEK); assay: Cytotoxicity test (cell survival), MTT assay, HEK; format: cell-based; settings: 24 hours; for MTT absorbance (OD): 570 nm; for Cell survival Avg (%) ± SD (%): Table 3; for activity at 10 µM / activity at 2000 µM / activity at 50 µM / activity at 100 µM / activity at 500 µM / activity at 1000 µM / activity at 5000 µM: Homo sapiens, Table 2, read-out: Cell survival (% of control C, in brackets); for activity at 10 µM: HEK001, 0.01 mM; for activity at 2000 µM: HEK2, 2 mM; for activity at 50 µM / activity at 100 µM / activity at 500 µM / activity at 1000 µM / activity at 5000 µM: Keratinocyte
Method: as §1, §2, §3, §4, §5, §6
(1) Human Epidermal Keratinocyte (HEK)
Cell survival of the human epidermal keratinocytes treated with ALA esters of the present invention and with ALA was compared. The results are summarized in Tables 1 and 2, which are represented in different manners depending on the measurements.

[5] = system: human epidermal keratinocyte (HEK), human dermal fibroblast (hF), squamous cell carcinoma (A431), malignant melanoma (TXM 13); assay: Fluorescence microscopy of PpIX in cell lines (FIG. 5); format: cell-based; settings: normal and cancer cell lines, fluorescence microscope
Method: 5. Observation Under Fluorescence Microscope
Each cell line and ICR mouse skin tissue were treated with the ALA esters of the present invention, and the regions where PpxIX was expressed were observed under a fluorescence microscope.
The normal cell lines, human epidermal keratinocytes (HEK) and human dermal fibroblasts (hF) and the cancer cell lines squamous cell carcinoma A431 and malignant melanoma TXM13 were treated with […] of the ALA esters of the present invention or ALA, followed by monitoring the fluorescence of the synthesized PpIX under a fluorescence microscope.

[6] = system: human epithelium keratocyte (HEK), human dermal fibroblast (hF), squamous cell carcinoma (A431), malignant melanoma (TXM13); assay: Fluorescence spectroscopy of PpIX synthesis in all cell lines (FIG. 2); format: cell-based; settings: range from 0.01 to 1 mM, 4 hours incubation
Method: (§7) 4. Fluorescence Spectroscopy
(§8) The synthesis of PpIX, induced by ALA and unsaturated alkyl esters of ALA in cells and skin tissues, was quantified using fluorescence spectroscopy.
(§9) The intensity of PpIX was measured on a fluorescence spectrophotometer (Uvikon, model 943) with excitation at 408 nm.
(§10) Each cell line was plated at a density of 2×10^5 cells in a 10 cm^2-dish (Falcon), and when the cells reached a confluent state of 70˜80%, serum-free media containing various concentrations (0.001˜1 mM) of ALA or ALA esters was added to the cells, followed by incubation for 4 hours.
(§11) After being washed once with PBS, the cells were detached with a 50% methanol solution containing 1M […] (HClO4) and scraped off using a Costar cell scraper.
(§12) The cells thus harvested were incubated for 5 min and centrifuged.
(§13) The fluorescence of the supernatant thus obtained was determined using a spectrofluorometer with excitation at 405 nm and emission at 605 nm.
(§14) The results are graphed in FIGS. 1 and 2.

[7] = system: skin of ICR mice (epidermis, sebaceous gland); assay: Cell death in skin tissue after ointment and LED irradiation, H&E (FIGS. 9, 10); format: in vivo; settings: for Sebaceous gland morphology after irradiation: 24 hours after visible light 25 J/cm^2, FIG. 10
Method: Ointments comprising ALA or the ALA esters of the present invention at various concentrations (5˜15%) were applied in a predetermined amount ([…]) to the back of shaved ICR mice.
1 and 4 hours after the application, the back was irradiated with LED visible light (dose 25 J/cm^2).
24, 48 and 72 hours after the irradiation, skin samples were taken from the back of the mice, stained with hematoxylin-eosin (H&E) and observed for cell death.

[8] = system: Squamous cell carcinoma (A431); assay: Cytotoxicity test (cell survival), MTT assay, A431; format: cell-based; settings: 24 hours
Method: as §1, §2, §3, §4, §5, §6
(3) Squamous Cell Carcinoma (A431)

A431 cells = assay: Fluorescence spectroscopy of PpIX synthesis in A431 cells (FIG. 1); format: cell-based; settings: 4 hours incubation, excitation 405 nm, emission 605 nm
Method: as §7, §8, §9, §10, §11, §12, §13, §14

NCC(=O)CCC(=O)O [ALA, 5-Aminolevulinic acid]
Cell survival [1]: ≥ 70%
Photo-induced apoptosis (Annexin V/PI) (Each cell line; 1 mM, then irradiation 5-20 J/cm^2, FIGS. 8C and D): induced the cells to undergo apoptosis (Annexin V+/PI−) or the late stage of apoptosis (Annexin V+/PI+)
Cell survival (flow cytometry) (Each cell line; treated but with no irradiation with visible light, FIGS. 8A and B): ≥ 85%
Cell survival Avg ± SD (%) ([2]; TXM 13, 0.01 mM): 100 ± 10.22%
Cell survival Avg ± SD (%) ([2]; TXM 13, 0.05 mM): 93.12 ± 5.82%
Cell survival Avg ± SD (%) ([2]; TXM 13, 0.1 mM): 86.66 ± 6.95%
Cell survival Avg ± SD (%) ([2]; TXM 13, 0.5 mM): 83.75 ± 9.57%
Cell survival Avg ± SD (%) ([2]; TXM 13, 1 mM): 89.91 ± 6.33%
Cell survival Avg ± SD (%) ([2]; TXM 13, 2 mM): 93.6 ± 5.13%
Cell survival Avg (%) ± SD (%) ([3]; 0.01 mM): 109.74 ± 11.55%
Cell survival Avg (%) ± SD (%) ([3]; 0.05 mM): 125.18 ± 14.08%
Cell survival Avg (%) ± SD (%) ([3]; 0.1 mM): 125.27 ± 16.1%
Cell survival Avg (%) ± SD (%) ([3]; 0.5 mM): 95.218 ± 9.47%
Cell survival Avg (%) ± SD (%) ([3]; 1 mM): 99.89 ± 18.3%
Cell survival Avg (%) ± SD (%) ([3]; 2 mM): 97.66 ± 9.45%
MTT absorbance (OD) ([4]; 0.01 mM): 3.428 OD
Cell survival Avg (%) ± SD (%) ([4]; 0.01 mM): 131.83 ± 0.9%
MTT absorbance (OD) ([4]; 0.05 mM): 3.318 OD
Cell survival Avg (%) ± SD (%) ([4]; 0.05 mM): 112.32 ± 0.7%
MTT absorbance (OD) ([4]; 0.1 mM): 3.457 OD
Cell survival Avg (%) ± SD (%) ([4]; 0.1 mM): 132.21 ± 0.35%
MTT absorbance (OD) ([4]; 0.5 mM): 3.285 OD
Cell survival Avg (%) ± SD (%) ([4]; 0.5 mM): 103.43 ± 0.15%
MTT absorbance (OD) ([4]; 1 mM): 2.802 OD
Cell survival Avg (%) ± SD (%) ([4]; 1 mM): 100.94 ± 6.16%
MTT absorbance (OD) ([4]; 2 mM): 2.179 OD
Cell survival Avg (%) ± SD (%) ([4]; 2 mM): 84.9 ± 5.12%
MTT absorbance (OD) ([4]; 5 mM): 1.659 OD
activity at 10 µM [4]: 97.6%
activity at 2000 µM [4]: 62.1%
activity at 50 µM ([4]; 0.05 mM): 94.5%
activity at 100 µM ([4]; 0.1 mM): 98.5%
activity at 500 µM ([4]; 0.5 mM): 92.8%
activity at 1000 µM ([4]; 1 mM): 79.7%
activity at 5000 µM ([4]; 5 mM): 47.2%
PpIX fluorescence in cytoplasm [5]: can induce the synthesis of PpIX in both normal and cancer cell lines
PpIX synthesis, dose dependence [6]: increase in a dose-dependent manner
Epidermis histology (H&E) after irradiation ([7]; 24 hours after visible light 25 J/cm^2, FIG. 9A): apoptosis or necrosis of the epidermis
Sebaceous gland morphology after irradiation [7]: destroyed partially or wholly
Cell survival Avg (%) ± SD (%) ([8]; A431, 0.01 mM): 102.99 ± 0.71%
Cell survival Avg (%) ± SD (%) ([8]; A431, 0.05 mM): 104.98 ± 0.35%
Cell survival Avg (%) ± SD (%) ([8]; A431, 0.1 mM): 106.79 ± 0.15%
Cell survival Avg (%) ± SD (%) ([8]; A431, 0.5 mM): 81.6 ± 6.16%
Cell survival Avg (%) ± SD (%) ([8]; A431, 1 mM): 84.17 ± 5.12%
Cell survival Avg (%) ± SD (%) ([8]; A431, 2 mM): 82.63 ± 2.44%

C=CCCCCOC(=O)CCC(=O)CN [ALA-6, 5-Aminolevulinic acid 5-hexenyl ester]
Cell survival Avg ± SD (%) ([2]; TXM 13, 0.01 mM): 92.05 ± 9.09%
Cell survival Avg ± SD (%) ([2]; TXM 13, 0.05 mM): 99.41 ± 8.25%
Cell survival Avg ± SD (%) ([2]; TXM 13, 0.1 mM): 81.45 ± 6.38%
Cell survival Avg ± SD (%) ([2]; TXM 13, 0.5 mM): 77.18 ± 8.17%
Cell survival Avg ± SD (%) ([2]; TXM 13, 1 mM): 76.06 ± 6.81%
Cell survival Avg ± SD (%) ([2]; TXM 13, 2 mM): 53.24 ± 6.8%
Cell survival Avg (%) ± SD (%) ([3]; 0.01 mM): 113.29 ± 13.51%
Cell survival Avg (%) ± SD (%) ([3]; 0.05 mM): 98.47 ± 13.03%
Cell survival Avg (%) ± SD (%) ([3]; 0.1 mM): 92.42 ± 13.86%
Cell survival Avg (%) ± SD (%) ([3]; 0.5 mM): 91.41 ± 9.04%
Cell survival Avg (%) ± SD (%) ([3]; 1 mM): 80.78 ± 5.6%
Cell survival Avg (%) ± SD (%) ([3]; 2 mM): 86.12 ± 5.37%
MTT absorbance (OD) ([4]; 0.01 mM): 3.13 OD
Cell survival Avg (%) ± SD (%) ([4]; 0.01 mM): 106.44 ± 0.37%
MTT absorbance (OD) ([4]; 0.05 mM): 3.413 OD
Cell survival Avg (%) ± SD (%) ([4]; 0.05 mM): 77.97 ± 0.88%
MTT absorbance (OD) ([4]; 0.1 mM): 3.18 OD
Cell survival Avg (%) ± SD (%) ([4]; 0.1 mM): 69 ± 3.42%
MTT absorbance (OD) ([4]; 0.5 mM): 2.521 OD
Cell survival Avg (%) ± SD (%) ([4]; 0.5 mM): 61.39 ± 3.22%
MTT absorbance (OD) ([4]; 1 mM): 2.548 OD
Cell survival Avg (%) ± SD (%) ([4]; 1 mM): 62 ± 5.58%
MTT absorbance (OD) ([4]; 2 mM): 2.306 OD
Cell survival Avg (%) ± SD (%) ([4]; 2 mM): 62 ± 1.59%
MTT absorbance (OD) ([4]; 5 mM): 1.388 OD
activity at 10 µM [4]: 91.2%
activity at 2000 µM [4]: 67.3%
activity at 50 µM ([4]; 0.05 mM): 99.4%
activity at 100 µM ([4]; 0.1 mM): 92.7%
activity at 500 µM ([4]; 0.5 mM): 73.4%
activity at 1000 µM ([4]; 1 mM): 74.3%
activity at 5000 µM ([4]; 5 mM): 40.2%
PpIX synthesis compared with ALA (A431 cells): greater PpIX synthesis in A431 cells than did ALA
Sebaceous gland morphology after irradiation [7]: destroyed partially or wholly
Epidermis histology (H&E) after irradiation ([7]; 48 hours after visible light 25 J/cm^2, FIGS. 9B and 9C): both necrosis and rejuvenation
Cell survival Avg (%) ± SD (%) ([8]; A431, 0.01 mM): 101.04 ± 0.88%
Cell survival Avg (%) ± SD (%) ([8]; A431, 0.05 mM): 91.32 ± 3.42%
Cell survival Avg (%) ± SD (%) ([8]; A431, 0.1 mM): 86.8 ± 3.22%
Cell survival Avg (%) ± SD (%) ([8]; A431, 0.5 mM): 84.16 ± 5.58%
Cell survival Avg (%) ± SD (%) ([8]; A431, 1 mM): 88.47 ± 4.59%
Cell survival Avg (%) ± SD (%) ([8]; A431, 2 mM): 66.21 ± 4.43%
